Data taken from patent publication US11077210B2, “Near-infrared fluorescent contrast bioimaging agents and methods of use thereof” (Beth Israel Deaconess Medical Center, priority 2013, dated 2021).

What was measured:
Assay type in all cases: in vivo
[1] = tested on: CSF; test: CSF NIR fluorescence imaging (FLARE); conditions: 35 kg female pig, 5 μmol intravenously, 4 hours; Channel 1 (700 nm) or Channel 2 (800 nm)
Procedure: (§1) Absorbance and fluorescence emission spectra were measured using fiber optic HR2000 absorbance (200-1100 nm) and USB2000FL fluorescence (350-1000 nm) spectrometers (Ocean Optics, Dunedin, Fla.). Excitation was provided by a 532 nm green laser pointer (Opcom Inc., Xiamen, China) set to 5 mW, a 655 nm red laser pointer (Opcom Inc., Xiamen, China) set to 5 mW, or a 770 nm NIR laser diode light source (Electro Optical Components, Santa Rosa, Calif.) set to 10 mW and coupled through a 300 μm core diameter, NA 0.22 fiber (Fiberguide Industries, Stirling, N.J.). In silico calculations of the partition coefficient (log D at pH 7.4) and surface molecular charge and hydrophobicity were calculated using MarvinSketch 5.2.1 by taking major microspecies at pH 7.4 (ChemAxon, Budapest, Hungary). NIR Fluorescence Imaging System The dual-NIR channel FLARE′ imaging system has been described in detail previously (26-28). […] Color and two independent NIR fluorescence emission images (≈700 nm for Channel 1 and ≈800 nm for Channel 2) were acquired simultaneously with custom software at rates up to 15 Hz over a 15 cm diameter field of view. NIR fluorescence from Channel 1 was pseudo-colored in red and NIR fluorescence from Channel 2 was pseudo-colored in lime green prior to merger with the color video image. […] Animal Models and Intraoperative NIR Fluorescence Imaging […]

[2] = tested on: neuroendocrine tumors (insulinoma); test: Neuroendocrine tumor NIR fluorescence imaging (FLARE); conditions: 25 g male insulinoma-bearing mouse, 140 nmol intravenously, 1 hour, pancreas imaged; Channel 1 (700 nm) or Channel 2 (800 nm)
Procedure: as §1

[3] = tested on: Peyer's patches; test: Peyer's patches NIR fluorescence imaging (FLARE); conditions: 250 g male rat, 100 nmol intravenously, 4 hours; Channel 2 (800 nm)
Procedure: as §1

[4] = tested on: spinal cartilage; test: Cartilage NIR fluorescence imaging (FLARE); conditions: 35 kg female pig, 5 μmol intravenously, 4 hours, Channel 1 (700 nm) or Channel 2 (800 nm)
Procedure: as §1

[5] = tested on: SLN; test: Sentinel lymph node (SLN) NIR fluorescence imaging (FLARE); conditions: 35 kg female pig, 5 nmol subcutaneously into bowel, 5 min; Channel 1 (700 nm) or Channel 2 (800 nm)
Procedure: as §1

[6] = tested on: pan lymph nodes; test: Pan lymph node NIR fluorescence imaging (FLARE); conditions: 250 g male rat, 20 nmol intravenously, 4 hours; Channel 1 (700 nm) or Channel 2 (800 nm)
Procedure: as §1

[7] = tested on: bone (rib cage); test: Bone NIR fluorescence imaging (FLARE); conditions: 35 kg female pig, 5 μmol intravenously, 4 hours, Channel 1 (700 nm) or Channel 2 (800 nm)
Procedure: as §1

[8] = tested on: prostate; test: Prostate NIR fluorescence imaging (FLARE); conditions: 25 g male mouse, 25 nmol intravenously, 4 hours; Channel 1 (700 nm) or Channel 2 (800 nm)
Procedure: as §1

[9] = tested on: gallbladder; test: Gallbladder NIR fluorescence imaging (FLARE); conditions: 25 g male mouse, 25 nmol intravenously, 4 hours; Channel 1 (700 nm) or Channel 2 (800 nm)
Procedure: as §1

[10] = tested on: ovaries; test: Ovary NIR fluorescence imaging (FLARE); conditions: 25 g female mouse, 25 nmol intravenously, 4 hours; Channel 1 (700 nm) or Channel 2 (800 nm)
Procedure: as §1

[11] = tested on: brain vasculature; test: Brain vasculature NIR fluorescence imaging (FLARE); conditions: 25 g male mouse, 25 nmol intravenously, 4 hours; Channel 1 (700 nm)
Procedure: as §1

CN1/C(=C/C=C/C=C/C=C/C2=[N+](C)c3ccccc3C2(C)C)C(C)(C)c2ccccc21 [AL20]
NIR fluorescence contrast of the CSF [1]: highlighted with high contrast
NIR fluorescence contrast of the tumors [2]: highlighted with high contrast

CC1(C)C(/C=C/C=C/C=C/C=C2/N(CCC[N+](C)(C)C)c3ccccc3C2(C)C)=[N+](CCC[N+](C)(C)C)c2ccccc21 [AL30]
NIR fluorescence contrast of the Peyer's patches [3]: highlighted with high contrast

CN(C)c1ccc2nc3ccc(=[N+](C)C)cc-3oc2c1 [ESS61]
NIR fluorescence contrast of the tumors [2]: highlighted with high contrast

CC1(C)C(/C=C/C2=C(Sc3ccc(CCN)cc3)C(=C/C=C3/N(CCC[N+](C)(C)C)c4ccc(S(=O)(=O)O)cc4C3(C)C)/CCC2)=[N+](CCC[N+](C)(C)C)c2ccc(S(=O)(=O)O)cc21 [LN50]
NIR fluorescence contrast of the cartilage [4]: highlighted with high contrast

CCN1/C(=C/C=C/C=C/C2=[N+](CC)c3ccc4ccccc4c3C2(C)C)C(C)(C)c2c1ccc1ccccc21 [MHI86]
NIR fluorescence contrast of the SLN [5]: highlighted with high contrast

CC1(C)C(/C=C/C2=C(Oc3ccc(CCC(=O)O)cc3)C(=C/C=C3/N(CCC[N+](C)(C)C)c4ccccc4C3(C)C)/CCC2)=[N+](CCC[N+](C)(C)C)c2ccccc21 [MM25]
NIR fluorescence contrast of the SLN [5]: highlighted with high contrast
NIR fluorescence contrast of all lymph nodes [6]: highlighted with high contrast

CC1(C)C(/C=C/C(C/C=C2/N(CCCP(=O)(O)O)c3ccc(S(=O)(=O)[O-])cc3C2(C)C)c2ccc(CCC(=O)O)cc2)=[N+](CCCP(=O)(O)O)c2ccc(S(=O)(=O)O)cc21 (centres unmarked) [P700SO3]
NIR fluorescence contrast of the bone [7]: highlighted with high contrast

CCN(CC)c1ccc(/C=C/C2=CC(/C=C/c3ccc(N(CC)CC)cc3O)=[O+][B-](F)(F)O2)c(O)c1 [PS62]
NIR fluorescence contrast of the prostate [8]: highlighted with high contrast
NIR fluorescence contrast of the gallbladder [9]: highlighted with high contrast
NIR fluorescence contrast of the ovaries [10]: highlighted with high contrast

C[N+](C)(C)CCCN1/C(=C/C=C/C=C/c2sc3cc(O)ccc3[n+]2CCC[N+](C)(C)C)Sc2cc(O)ccc21 [SP56]
NIR fluorescence contrast of the cartilage [4]: highlighted with high contrast

CNCCCN1/C(=C/C=C/C=C/c2sc3cc(O)ccc3[n+]2CCCNC)Sc2cc(O)ccc21 [ZK214]
NIR fluorescence contrast of the brain vasculature [11]: highlighted with high contrast
